Laboratory results reported in ChEMBL document CHEMBL1144793, “Synthesis and characterization of 1,3-dihydro-benzo[b][1,4]diazepin-2-one derivatives: Part 3. New potent non-competitive metabotropic glutamate receptor 2/3 antagonists” (Bioorg Med Chem Lett, 2008).
Calls of active or inactive are those of the source. The rule behind the calls is not given here.

Assays:
[1] = Drug level in rat brain at 10 mg/kg, po after 1.5 hrs; assay type: ADME, organism-based; design: dose 10 mg/kg, route oral; conditions: read-out: Drug uptake
[2] = target: T1, Metabotropic glutamate receptor 2 (Rattus norvegicus, UniProt P31421); experiment: Antagonist activity at rat mGluR2 assessed as blockade of (1S,3R)-ACPD-induced inhibition of forskolin-stimulated cAMP production; assay type: functional
[3] = target: T1, Metabotropic glutamate receptor 2; experiment: Displacement of [3H]LY354740 from rat mGluR2
[4] = target: T1, Metabotropic glutamate receptor 2; experiment: Antagonist activity at rat mGluR2 expressed in CHO cells assessed as inhibition of glutamta-induced GIRK current; assay type: functional, cell-based
[5] = Plasma concentration in rat at 10 mg/kg, po after 1.5 hrs; assay type: ADME, organism-based; design: dose 10 mg/kg, route oral
[6] = target: Metabotropic glutamate receptor 3 (Rattus norvegicus, UniProt P31422); experiment: Antagonist activity at rat mGluR3 expressed in CHO cells assessed as inhibition of glutamate-induced GIRK current; assay type: functional, cell-based
[7] = system: Mus musculus; experiment: Spontaneous locomotor activity in po dosed C57BL/6J mouse assessed as reversal of LY-354740-induced hypoactivity; assay type: functional
[8] = Ratio of drug level in brain to plasma at 10 mg/kg, po after 1.5 hrs; assay type: ADME, organism-based; design: dose 10 mg/kg, route oral; conditions: rat
[9] = target: Cytochrome P450 3A4 (Homo sapiens, UniProt P08684); experiment: Inhibition of CYP3A4; assay type: ADME
[10] = Ratio of drug level in cerebrospinal fluid to plasma at 10 mg/kg, po after 1.5 hrs; assay type: ADME, organism-based, CSF/Plasma; design: dose 10 mg/kg, route oral; conditions: rat
[11] = Binding affinity to ionotropic glutamate receptor
[12] = Binding affinity to GABAA receptor
[13] = Clearance in rat microsomes; assay type: ADME, Liver, Microsome

Metabotropic glutamate receptor 3, sequence (P31422 whole entry): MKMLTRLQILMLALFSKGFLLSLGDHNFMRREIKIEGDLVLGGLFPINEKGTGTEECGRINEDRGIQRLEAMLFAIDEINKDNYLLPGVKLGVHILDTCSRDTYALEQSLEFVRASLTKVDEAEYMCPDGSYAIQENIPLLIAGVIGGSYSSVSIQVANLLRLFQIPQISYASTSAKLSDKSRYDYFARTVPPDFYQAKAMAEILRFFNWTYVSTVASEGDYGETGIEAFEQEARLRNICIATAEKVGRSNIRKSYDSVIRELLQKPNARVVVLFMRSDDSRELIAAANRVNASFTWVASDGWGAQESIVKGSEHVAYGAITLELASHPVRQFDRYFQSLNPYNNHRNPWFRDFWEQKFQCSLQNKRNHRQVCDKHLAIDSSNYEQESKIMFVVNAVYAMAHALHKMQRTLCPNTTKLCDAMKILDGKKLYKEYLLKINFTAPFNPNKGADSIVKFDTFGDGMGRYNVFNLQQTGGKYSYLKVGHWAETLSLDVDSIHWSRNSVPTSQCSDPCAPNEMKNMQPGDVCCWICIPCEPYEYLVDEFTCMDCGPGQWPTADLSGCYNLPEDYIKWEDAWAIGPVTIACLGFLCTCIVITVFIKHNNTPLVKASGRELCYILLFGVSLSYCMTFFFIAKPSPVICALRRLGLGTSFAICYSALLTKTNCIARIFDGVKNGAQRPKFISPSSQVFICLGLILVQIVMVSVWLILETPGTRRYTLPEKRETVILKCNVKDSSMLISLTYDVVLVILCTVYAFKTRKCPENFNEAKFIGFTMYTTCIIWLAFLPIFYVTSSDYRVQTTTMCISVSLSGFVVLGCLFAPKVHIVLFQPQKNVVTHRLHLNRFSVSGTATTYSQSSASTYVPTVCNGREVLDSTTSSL
T1 sequence (P31421 whole entry): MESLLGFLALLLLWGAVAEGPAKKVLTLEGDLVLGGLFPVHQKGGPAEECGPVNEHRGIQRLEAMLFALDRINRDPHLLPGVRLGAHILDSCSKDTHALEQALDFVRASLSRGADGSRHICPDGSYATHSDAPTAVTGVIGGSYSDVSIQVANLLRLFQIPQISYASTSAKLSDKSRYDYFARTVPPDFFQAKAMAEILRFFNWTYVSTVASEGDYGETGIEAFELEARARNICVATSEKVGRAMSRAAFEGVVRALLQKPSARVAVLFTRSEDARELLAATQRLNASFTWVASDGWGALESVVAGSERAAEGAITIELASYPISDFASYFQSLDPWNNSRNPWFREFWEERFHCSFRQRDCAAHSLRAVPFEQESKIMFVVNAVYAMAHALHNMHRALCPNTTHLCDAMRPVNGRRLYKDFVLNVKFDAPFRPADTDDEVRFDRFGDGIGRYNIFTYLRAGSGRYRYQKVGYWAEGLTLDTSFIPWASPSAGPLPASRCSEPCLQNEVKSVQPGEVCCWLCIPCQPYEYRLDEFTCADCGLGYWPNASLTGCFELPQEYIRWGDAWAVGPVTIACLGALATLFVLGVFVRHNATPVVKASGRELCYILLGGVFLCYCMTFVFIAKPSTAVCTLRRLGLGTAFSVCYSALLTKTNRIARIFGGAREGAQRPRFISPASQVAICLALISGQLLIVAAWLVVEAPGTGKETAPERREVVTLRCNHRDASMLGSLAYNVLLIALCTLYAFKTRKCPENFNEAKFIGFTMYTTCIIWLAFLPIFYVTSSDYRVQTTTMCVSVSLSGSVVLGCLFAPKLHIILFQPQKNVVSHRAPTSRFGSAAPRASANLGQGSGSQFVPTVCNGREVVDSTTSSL
Cytochrome P450 3A4, sequence (P08684 whole entry): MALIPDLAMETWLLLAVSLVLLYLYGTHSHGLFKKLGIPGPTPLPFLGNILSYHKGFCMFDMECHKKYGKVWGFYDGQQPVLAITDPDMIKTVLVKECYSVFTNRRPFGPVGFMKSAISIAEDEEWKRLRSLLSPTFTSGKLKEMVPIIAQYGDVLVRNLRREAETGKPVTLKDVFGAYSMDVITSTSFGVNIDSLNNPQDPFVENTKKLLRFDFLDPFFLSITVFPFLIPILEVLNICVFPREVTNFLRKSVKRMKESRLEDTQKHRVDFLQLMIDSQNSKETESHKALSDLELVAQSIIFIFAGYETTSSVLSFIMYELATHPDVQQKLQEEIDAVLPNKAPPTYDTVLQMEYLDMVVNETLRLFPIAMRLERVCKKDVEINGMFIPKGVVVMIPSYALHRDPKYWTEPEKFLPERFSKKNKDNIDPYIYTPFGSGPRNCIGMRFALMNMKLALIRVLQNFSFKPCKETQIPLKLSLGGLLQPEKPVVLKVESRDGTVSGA

SMILES	IC50 [2] [nM]	IC50 [3] [nM]	further results
O=C1CC(c2cccc(-n3ccnc3)c2)=Nc2ccc(-c3ccccc3F)cc2N1	27	12	concentration at 1.5 h [1]: 1340 ng/mL; IC50 [4]: 11 nM; concentration at 1.5 h [5]: 2660 ng/mL; IC50 [6]: 33 nM; ED50 [7]: 12.5 mg/kg; Kp at 1.5 h [8]: 0.5
Cc1cc2c(cc1C(F)(F)F)NC(=O)CC(c1cccc(-n3ccnc3)c1)=N2	19	12	
O=C1CC(c2cccc(-n3ccnn3)c2)=Nc2ccc(-c3ccccc3F)cc2N1	37	16	IC50 [9]: 4300 nM; concentration at 1.5 h [1]: 1060 ng/mL; Kp at 1.5 h [10]: 0.5; Activity [11]: inactive; IC50 [4]: 22 nM; concentration at 1.5 h [5]: 1420 ng/mL; IC50 [6]: 42 nM; ED50 [7]: 3.3 mg/kg; Activity [12]: inactive; Kp at 1.5 h [8]: 0.9
O=C1CC(c2cccc(-n3ccnn3)c2)=Nc2ccc(-c3cc(F)ccc3F)cc2N1	18	17	
CC(C)CN(C)c1cc2c(cc1C(F)(F)F)NC(=O)CC(c1cccc(-n3ccnn3)c1)=N2	14	11	
O=C1CC(c2cccc(-n3ccnc3)c2)=Nc2ccc(C(F)(F)F)cc2N1		43	
O=C1CC(c2cccc(-n3ccnc3)c2)=Nc2cc(O)c(C#Cc3ccc(F)cc3)cc2N1			IC50 [4]: 24 nM
O=C1CC(c2cccc(-n3ccnn3)c2)=Nc2ccc(-c3ccc(F)cc3)cc2N1	36	31	
O=C1CC(c2cccc(-n3ccnn3)c2)=Nc2ccc(C(F)(F)F)cc2N1		92	
O=C1CC(c2cccc(-n3ccnn3)c2)=Nc2ccc(OCC(F)(F)F)cc2N1		70	
CCOc1cc2c(cc1C(F)(F)F)NC(=O)CC(c1cccc(-n3ccnn3)c1)=N2	34	7	
O=C1CC(c2cccc(-n3ccnc3)c2)=Nc2cc(Cl)c(C(F)(F)F)cc2N1	15	17	
O=C1CC(c2cccc(-n3ccnc3)c2)=Nc2ccc(-c3cccc(F)c3)cc2N1		25	
CCc1cc2c(cc1C(F)(F)F)NC(=O)CC(c1cccc(-n3ccnc3)c1)=N2	10	4	
O=C1CC(c2cccc(-n3ccnc3)c2)=Nc2ccc(C3CC3)cc2N1		210	
O=C1CC(c2cccc(-n3ccnn3)c2)=Nc2ccc(Cl)cc2N1		60	
O=C1CC(c2cccc(-n3ccnc3)c2)=Nc2ccc(Br)cc2N1		72	
COc1cc2c(cc1C(F)(F)F)NC(=O)CC(c1cccc(-n3ccnn3)c1)=N2	74	29	

More lines, main results first:

IC50 [2] [nM]	IC50 [3] [nM]	SMILES	further results
116	27	O=C1CC(c2cccc(-n3ccnn3)c2)=Nc2cc(Cl)c(C(F)(F)F)cc2N1	
73	19	CC(C)CNc1cc2c(cc1C(F)(F)F)NC(=O)CC(c1cccc(-n3ccnc3)c1)=N2	
	608	O=C1CC(c2cccc(-n3ccnn3)c2)=Nc2ccc(C(F)F)cc2N1	
	22	O=C1CC(c2cccc(-n3ccnc3)c2)=Nc2cc(O)c(-c3ccccc3F)cc2N1	CLint scaled [13]: 100 mL/min/kg; IC50 [4]: 35 nM; IC50 [6]: 122 nM
	466	CC(C)c1ccc2c(c1)NC(=O)CC(c1cccc(-n3ccnn3)c1)=N2	
184	38	CN(C)c1cc2c(cc1C(F)(F)F)NC(=O)CC(c1cccc(-n3ccnn3)c1)=N2	
17	7	O=C1CC(c2cccc(-n3ccnc3)c2)=Nc2ccc(-c3cc(F)ccc3F)cc2N1	
268	42	CC(C)CNc1cc2c(cc1C(F)(F)F)NC(=O)CC(c1cccc(-n3ccnn3)c1)=N2	
24	17	O=C1CC(c2cccc(-n3ccnc3)c2)=Nc2ccc(-c3ccc(F)cc3)cc2N1	IC50 [4]: 299 nM; IC50 [6]: 17 nM
52	9	CN(C)c1cc2c(cc1C(F)(F)F)NC(=O)CC(c1cccc(-n3ccnc3)c1)=N2	
39	9	Cc1cc2c(cc1C(F)(F)F)NC(=O)CC(c1cccc(-n3ccnn3)c1)=N2	
	130	O=C1CC(c2cccc(-n3ccnn3)c2)=Nc2ccc(Br)cc2N1	
47	39	O=C1CC(c2cccc(-n3ccnc3)c2)=Nc2ccc(-c3ccccc3)cc2N1	
